Test results reported in ChEMBL document CHEMBL1255282, “Escherichia coli isolate coproducing 16S rRNA Methylase and CTX-M-type extended-spectrum beta-lactamase isolated from an outpatient in the United States” (2008).
Converted amounts (≈) assume the structure as drawn. The source made the active and inactive calls. The rule behind the calls is not given here.

Assays:
Assay type in all cases: functional
Escherichia coli [1] = test: Antibacterial activity against 16S rRNA methylase RmtB and CTX-M-65 ESBL producing Escherichia coli isolate ECRB1 by Etest
Escherichia coli [2] = test: Antibacterial activity against Escherichia coli DH10B harboring pBCSK expressing rmtB gene by Etest
Escherichia coli [3] = test: Antibacterial activity against 16S rRNA methylase rmtB and CTX-M-65 ESBL producing rifampin resistant Escherichia coli isolate ECRB1 by Etest
Escherichia coli [4] = test: Antibacterial activity against 16S rRNA methylase RmtB and CTX-M-65 ESBL producing Escherichia coli DH10B by Etest

Compound	Activity (Escherichia coli [1])	MIC (Escherichia coli [1])	MIC (Escherichia coli [2])	MIC (Escherichia coli [3])	MIC (Escherichia coli [4])
O=C(O)c1cn(C2CC2)c2cc(N3CCNCC3)c(F)cc2c1=O	Active	–	–	–	–
GENTAMICIN	–	> 256 µg/mL	> 256 µg/mL	> 128 µg/mL	> 128 µg/mL
NC[C@H]1O[C@H](O[C@H]2[C@H](O)[C@@H](O[C@H]3O[C@H](CO)[C@@H](O)[C@H](N)[C@H]3O)[C@H](N)C[C@@H]2N)[C@H](N)C[C@@H]1O [TOBRAMYCIN]	–	> 256 µg/mL	> 256 µg/mL	≥ 128 µg/mL	≥ 128 µg/mL
CO/N=C(\C(=O)N[C@@H]1C(=O)N2C(C(=O)O)=C(COC(C)=O)CS[C@H]12)c1csc(N)n1 [CEFOTAXIME]	–	64 µg/mL (≈ 141 µM)	–	96 µg/mL (≈ 211 µM)	96 µg/mL (≈ 211 µM)
NCC[C@H](O)C(=O)N[C@@H]1C[C@H](N)[C@@H](O[C@H]2O[C@H](CN)[C@@H](O)[C@H](O)[C@H]2O)[C@H](O)[C@H]1O[C@H]1O[C@H](CO)[C@@H](O)[C@H](N)[C@H]1O [AMIKACIN]	–	> 256 µg/mL	> 256 µg/mL	≥ 128 µg/mL	≥ 128 µg/mL
